# PubChem BioAssay (NCI)
#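 A five-concentration, 48-hour dose response in 96-well plates underlies each endpoint, interpolated linearly between surrounding concentrations. GI50 marks 50% less growth. The concentration for full growth arrest is given as TGI.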
# Experiments:
# Assay in all cases: NCI-60 cell line screen, 48 h
# HOP-92 NSCLC = test system: HOP-92 NSCLC
# HCT-116 colon = test system: HCT-116 colon
# UACC-62 melanoma = test system: UACC-62 melanoma
# CAKI-1 renal = test system: CAKI-1 renal
# RPMI-8226 leukemia = test system: RPMI-8226 leukemia
# U251 CNS = test system: U251 CNS
# OVCAR-4 ovarian = test system: OVCAR-4 ovarian
# OVCAR-5 ovarian = test system: OVCAR-5 ovarian
# LOX IMVI melanoma = test system: LOX IMVI melanoma
# NCI-H522 lung = test system: NCI-H522 lung
Compound,TGI (HOP-92 NSCLC) [µM],TGI (HCT-116 colon) [µM],TGI (UACC-62 melanoma) [µM],TGI (CAKI-1 renal) [µM],TGI (RPMI-8226 leukemia) [µM],TGI (U251 CNS) [µM],TGI (OVCAR-4 ovarian) [µM],TGI (OVCAR-5 ovarian) [µM],TGI (LOX IMVI melanoma) [µM],TGI (NCI-H522 lung) [µM],GI50 (RPMI-8226 leukemia) [µM]
CC1CC[C@@H](C(C)C)[C@H](Oc2nnc(C3OC(CO)C(O)C3O)o2)C1 (stereo partly specified),> 100,> 100,> 100,> 100,> 100,> 100,> 100,> 100,> 100,,
C=Cc1c(C)c(OC)cc2c1Oc1ccc(OC)c(C)c1CC2,> 100,> 100,> 100,> 100,> 100,> 100,> 100,> 100,,> 100,
Cc1c(/C=N/NC(=S)Nc2ccccc2Cl)c(=O)n(-c2ccccc2)n1C,,> 100,> 100,81.3,> 100,> 100,> 100,> 100,> 100,60.9,
CCCCCC/C=C\CCCCCCCCCc1cccc(O)c1C(=O)O,> 100,> 100,> 100,> 100,> 100,> 100,> 100,> 100,,> 100,
CC(=O)OCC(OC(C)=O)C(OC(C)=O)C(C=NN(C(C)=O)S(=O)(=O)c1ccc(/C=C2\NC(=O)NC2=O)cc1)OC(C)=O (stereo unspecified),,> 100,> 100,> 100,> 100,> 100,> 100,> 100,,,> 100
N#Cc1c(N)oc(-c2cccc([N+](=O)[O-])c2)c1C#N,37.7,> 100,> 100,43.6,59.8,94.5,,> 100,85.6,59.1,
N#CC(C#N)=Cc1ccc2c(c1)OC(Cl)O2 (stereo unspecified),,38.6,59.3,> 100,> 100,41.4,> 100,37.1,38.2,,
CC12NN=NC1C(=O)NC2=O (stereo unspecified),> 100,> 100,> 100,> 100,> 100,> 100,> 100,,> 100,> 100,
CC1CCCc2c(C#N)c(N)nc(-c3ccc(Cl)cc3)c21 (stereo unspecified),,> 100,38.2,> 100,39.2,> 100,,63.3,36.3,,
O=c1oc2ccccc2c2c(=O)c3ccc(OC/C(=N/O)c4ccc(Cl)cc4)cc3oc12,25.1,24,24.4,24,33.1,23.3,,37,31.9,,
C/C(=N\Nc1nc2ccccc2s1)c1ncccn1,1.1,,1.06,5.62,,> 100,,22.7,,16.5,
CCOC(=O)c1c(N2CCCC2)nsc1Nc1ccccc1,> 100,> 100,,> 100,> 100,,> 100,> 100,> 100,,
CN(C)CCCNC(=O)N/N=C/c1cccc([N+](=O)[O-])c1,,> 100,> 100,,,> 100,> 100,,> 100,> 100,
COc1ccc(NS(=O)CCCc2ccccc2)cc1 (stereo unspecified),,> 100,> 100,,> 100,> 100,> 100,> 100,> 100,> 100,
C=CCOC(=O)/C(=C\c1ccc(OC)c(OC)c1)c1ccc(OC)c(OC)c1,> 100,> 100,> 100,> 100,47.6,> 100,,> 100,,> 100,
O=c1oc2ccccc2cc1/C=N/N1C(=S)N(c2ccccc2)C(=Nc2ccccc2)C1=Nc1ccccc1,> 100,> 100,> 100,> 100,> 100,> 100,,> 100,,> 100,
CC1=NN(c2ccccc2)C(=O)/C1=C/c1ccc(O)cc1,> 100,> 100,> 100,> 100,> 100,> 100,> 100,> 100,> 100,,
CN(C)c1ccc(N=Nc2ccc3nc[nH]c3c2)cc1,,38.8,48.7,> 100,59.2,76.4,68.5,70.4,,51.1,
Cc1n[nH]c(=O)c2cc(-c3ccccc3)[nH]c12,> 100,> 100,> 100,> 100,> 100,> 100,> 100,> 100,> 100,,
CC(C)[C@@H]1NC(=O)[C@H]2N=C(O[C@@H]2C)[C@@H]2CCCN2C(=O)[C@H](Cc2ccccc2)NC(=O)[C@@H]2CSC(=N2)[C@@H](Cc2ccccc2)NC(=O)[C@@H]2CSC1=N2,,> 50,> 50,> 50,32.1,> 50,> 50,> 50,> 50,> 50,
CCO[C@]12C[C@H](OC)[C@@]3(O)CC(C1[C@H]3OCc1ccccc1)C13C4C2[C@H](OC)C1[C@](COC)(CN4CC)[C@H](O)C[C@@H]3OC (stereo partly specified),,> 100,> 100,,> 100,> 100,> 100,> 100,> 100,,
CC1(CCC2C=CCC2)CCCNC1=S (stereo unspecified),> 10,> 10,> 10,,> 10,> 10,,> 10,> 10,,
Cc1ccc(-c2nc3ccc(Cl)cc3[nH]2)cc1,> 100,> 100,> 100,> 100,> 100,> 100,> 100,,> 100,> 100,
CNC(=O)N1CN(c2ccccc2)C2(CCN(CCCC(=O)c3ccc(F)cc3)CC2)C1=O,,24.6,43.4,> 100,34,60.4,,29,37.1,56.6,
O=C(Cn1c2c(c3ccccc31)CCCC2)NC1CCCCC1,,> 100,> 100,> 100,> 100,,> 100,> 100,> 100,,
